In US8789785B2, “Device for micronization of solid materials and its use” (Lambano Trading Limited, priority 2010, dated 2014):

Test: bioavailability of the substance micronized with the device
Format: in vivo
Conditions: after micronization with the device from the present invention
From the text: As an example of pharmaceutically active substance herein is mentioned anti-inflammatory substance alclometasone-17,21-dipropionate which was successfully micronized with the device from the present invention yielding the product of increased bioavailability.

bioavailability of the micronized product: increased
SMILES: CCC(=O)OCC(=O)[C@@]1(OC(=O)CC)[C@H](C)C[C@H]2[C@H]3[C@H]([C@@H](O)C[C@@]21C)[C@@]1(C)C=CC(=O)C=C1C[C@H]3Cl [alclometasone-17,21-dipropionate]
